Results reported in US9833497B2, “Human originated EGF domain proteins and use of the same” (CHENGDU SOURCEBIO LIMITED-LIABILITY COMPANY, priority 2013, dated 2017).

How the values were obtained:
Assay type in all cases: cell-based
Moraxella catarrhalis = assay: MIC against Gram-negative bacteria: Moraxella catarrhalis
Method in brief: (§1)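 Bacteria grown in LB at 37° C to McFarland 0.5, resuspended and seeded at 5×10^5 CFU/mL in 96-well plates. Purified human EGF-domain proteins two-fold serially diluted, triplicate wells; cultured at 37° C, shaking 175 rpm. MIC = lowest protein concentration with no growth.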

Proteus vulgaris = assay: MIC against Gram-negative bacteria: Proteus vulgaris
Method in brief: as §1

E. coli BL21 = assay: MIC against Gram-negative bacteria: E. coli BL21; conditions: for MIC / MIC against E. coli BL21 / MIC (μg/mL) E. coli BL21: E. coli BL21
Method in brief: as §1

Proteus mirabilis = assay: MIC against Gram-negative bacteria: Proteus mirabilis
Method in brief: as §1

Aeromonas hydrophila = assay: MIC against Gram-negative bacteria: Aeromonas hydrophila
Method in brief: as §1

Citrobacter diversus = assay: MIC against Gram-negative bacteria: Citrobacter diversus
Method in brief: as §1

Enterobacter cloacae = assay: MIC against Gram-negative bacteria: Enterobacter cloacae
Method in brief: as §1

Serratia marcescens = assay: MIC against Gram-negative bacteria: Serratia marcescens
Method in brief: as §1

Klebsiella pneumonia = assay: MIC against Gram-negative bacteria: Klebsiella pneumonia
Method in brief: as §1

Pseudomonas aeruginosa = assay: MIC against Gram-negative bacteria: Pseudomonas aeruginosa
Method in brief: as §1

E. coli DH5α = assay: Antibacterial activity: MIC and growth curve against E. coli DH5α in 96-well plate; conditions: minimal inhibitory concentration against E. coli DH5α; 96-well plate, 5×10^5 CFU/mL, 37° C., judged after 8 h
Method in brief: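 Log-phase bacteria (OD600 ~0.5) resuspended in LB at 5×10^5 CFU/mL, exposed to recombinant protein at 50, 25, 12.5 μg/mL final in triplicate, 37 °C shaking at 175 rpm. OD600 read every 30 min; MIC is lowest concentration showing no growth.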

[1] = M. catarrhalis, 10 h cultivation at 37° C.
[2] = P. vulgaris, 10 h cultivation at 37° C.
[3] = P. mirabilis, 10 h cultivation at 37° C.
[4] = A. hydrophila, 10 h cultivation at 37° C.
[5] = C. diversus, 10 h cultivation at 37° C.
[6] = E. cloacae, 10 h cultivation at 37° C.
[7] = S. marcescens, 10 h cultivation at 37° C.
[8] = K. pneumonia, 10 h cultivation at 37° C.
[9] = P. aeruginosa, 10 h cultivation at 37° C.
[10] = Moraxella catarrhalis, 96-well plate, 5×10^5 CFU/mL, 37° C., 10 h
[11] = Proteus vulgaris, 96-well plate, 5×10^5 CFU/mL, 37° C., 10 h
[12] = 96-well plate, 5×10^5 CFU/mL, 37° C., 10 h
[13] = Proteus mirabilis, 96-well plate, 5×10^5 CFU/mL, 37° C., 10 h
[14] = Aeromonas hydrophila, 96-well plate, 5×10^5 CFU/mL, 37° C., 10 h
[15] = Citrobacter diversus, 96-well plate, 5×10^5 CFU/mL, 37° C., 10 h
[16] = Enterobacter cloacae, 96-well plate, 5×10^5 CFU/mL, 37° C., 10 h
[17] = Serratia marcescens, 96-well plate, 5×10^5 CFU/mL, 37° C., 10 h
[18] = Klebsiella pneumonia, 96-well plate, 5×10^5 CFU/mL, 37° C., 10 h
[19] = Pseudomonas aeruginosa, 96-well plate, 5×10^5 CFU/mL, 37° C., 10 h

## PRT941 (EINECSSHPCLNEGTCVDGLGTYRCSCPLGYTGKNCQ; listed as Homo sapiens)
Moraxella catarrhalis; [1]
  MIC: 50 mg/L
Proteus vulgaris; [2]
  MIC: 50 mg/L
E. coli BL21; 10 h cultivation at 37° C.
  MIC: 50 mg/L
Proteus mirabilis; [3]
  MIC: 12.5 mg/L
Aeromonas hydrophila; [4]
  MIC: 50 mg/L
Citrobacter diversus; [5]
  MIC: 12.5 mg/L
Enterobacter cloacae; [6]
  MIC: 12.5 mg/L
Serratia marcescens; [7]
  MIC: 12.5 mg/L
Klebsiella pneumonia; [8]
  MIC: 50 mg/L
Pseudomonas aeruginosa; [9]
  MIC: 12.5 mg/L
E. coli DH5α
  MIC: 25 mg/L

## PRT1324 (PITSCLEQTGKCHPLASCQSTSSGVWSCVCQEGYEGDGFL; listed as Homo sapiens)
Moraxella catarrhalis; [10]
  MIC against M. catarrhalis: 12.5 mg/L
Proteus vulgaris; [11]
  MIC against P. vulgaris: 12.5 mg/L
E. coli BL21; [12]
  MIC against E. coli BL21: 25 mg/L
Proteus mirabilis; [13]
  MIC against P. mirabilis: 25 mg/L
Aeromonas hydrophila; [14]
  MIC against A. hydrophila: 50 mg/L
Citrobacter diversus; [15]
  MIC against C. diversus: 25 mg/L
Enterobacter cloacae; [16]
  MIC against E. cloacae: 12.5 mg/L
Serratia marcescens; [17]
  MIC against S. marcescens: 25 mg/L
Klebsiella pneumonia; [18]
  MIC against K. pneumonia: 25 mg/L
Pseudomonas aeruginosa; [19]
  MIC against P. aeruginosa: 50 mg/L
E. coli DH5α
  MIC: 12.5 mg/L

## PRT16 (EKSPCQPNPCHGAAPCRVLPEGGAQCECPLGREGTFCQ; listed as Homo sapiens)
Moraxella catarrhalis; [10]
  MIC (μg/mL) M. catarrhalis: 12.5 µg/mL
Proteus vulgaris; [11]
  MIC (μg/mL) P. vulgaris: 25 µg/mL
E. coli BL21; [12]
  MIC (μg/mL) E. coli BL21: 12.5 µg/mL
Proteus mirabilis; [13]
  MIC (μg/mL) P. mirabilis: 50 µg/mL
Aeromonas hydrophila; [14]
  MIC (μg/mL) A. hydrophila: 50 µg/mL
Citrobacter diversus; [15]
  MIC (μg/mL) C. diversus: 25 µg/mL
Enterobacter cloacae; [16]
  MIC (μg/mL) E. cloacae: 12.5 µg/mL
Serratia marcescens; [17]
  MIC (μg/mL) S. marcescens: 25 µg/mL
Klebsiella pneumonia; [18]
  MIC (μg/mL) K. pneumonia: 12.5 µg/mL
Pseudomonas aeruginosa; [19]
  MIC (μg/mL) P. aeruginosa: 25 µg/mL
E. coli DH5α
  MIC: 12.5 mg/L

## PRT718 (MTLCSALNCQYQCHETPYGGACFCPPGYIINHNDSRTCV; listed as Homo sapiens)
Moraxella catarrhalis; [12]
  MIC M. catarrhalis: 12.5 mg/L
Proteus vulgaris; [12]
  MIC P. vulgaris: 50 mg/L
E. coli BL21; [12]
  MIC E. coli BL21: 25 mg/L
Proteus mirabilis; [12]
  MIC P. mirabilis: 25 mg/L
Aeromonas hydrophila; [12]
  MIC A. hydrophila: 25 mg/L
Citrobacter diversus; [12]
  MIC C. diversus: 25 mg/L
Enterobacter cloacae; [12]
  MIC E. cloacae: 25 mg/L
Serratia marcescens; [12]
  MIC S. marcescens: 12.5 mg/L
Klebsiella pneumonia; [12]
  MIC K. pneumonia: 25 mg/L
Pseudomonas aeruginosa; [12]
  MIC P. aeruginosa: 50 mg/L
E. coli DH5α
  MIC: 12.5 mg/L

## PRT961 (DVDECASTPCRNGAKCVDQPDGYECRCAEGFEGTLCD; listed as Homo sapiens)
Moraxella catarrhalis; [1]
  MIC: 25 mg/L
Proteus vulgaris; [2]
  MIC: 12.5 mg/L
E. coli BL21; 10 h cultivation at 37° C.
  MIC: 25 mg/L
Proteus mirabilis; [3]
  MIC: 50 mg/L
Aeromonas hydrophila; [4]
  MIC: 12.5 mg/L
Citrobacter diversus; [5]
  MIC: 25 mg/L
Enterobacter cloacae; [6]
  MIC: 12.5 mg/L
Serratia marcescens; [7]
  MIC: 25 mg/L
Klebsiella pneumonia; [8]
  MIC: 25 mg/L
Pseudomonas aeruginosa; [9]
  MIC: 100 mg/L
E. coli DH5α
  MIC: 12.5 mg/L

## PRT72 (NKLDLPCPRGWWGNPVCGPCHCAVSKGFDPDCN; listed as Homo sapiens)
Moraxella catarrhalis; [10]
  MIC (μg/mL) M. catarrhalis: 12.5 µg/mL
Proteus vulgaris; [11]
  MIC (μg/mL) P. vulgaris: 25 µg/mL
E. coli BL21; [12]
  MIC (μg/mL) E. coli BL21: 12.5 µg/mL
Proteus mirabilis; [13]
  MIC (μg/mL) P. mirabilis: 12.5 µg/mL
Aeromonas hydrophila; [14]
  MIC (μg/mL) A. hydrophila: 12.5 µg/mL
Citrobacter diversus; [15]
  MIC (μg/mL) C. diversus: 12.5 µg/mL
Enterobacter cloacae; [16]
  MIC (μg/mL) E. cloacae: 25 µg/mL
Serratia marcescens; [17]
  MIC (μg/mL) S. marcescens: 100 µg/mL
Klebsiella pneumonia; [18]
  MIC (μg/mL) K. pneumonia: 12.5 µg/mL
Pseudomonas aeruginosa; [19]
  MIC (μg/mL) P. aeruginosa: 25 µg/mL
E. coli DH5α
  MIC: 12.5 mg/L

## PRT252 (TAACTNTSCSGHGECVETINNYTCKCDPGFSGLKCE; listed as Homo sapiens)
Moraxella catarrhalis; M. catarrhalis, 10 h cultivation at 37° C., 5×10^5 CFU/mL
  MIC (μg/mL) M. catarrhalis: 12.5 µg/mL
Proteus vulgaris; P. vulgaris, 10 h cultivation at 37° C., 5×10^5 CFU/mL
  MIC (μg/mL) P. vulgaris: 12.5 µg/mL
E. coli BL21; 10 h cultivation at 37° C., 5×10^5 CFU/mL
  MIC (μg/mL) E. coli BL21: 12.5 µg/mL
Proteus mirabilis; P. mirabilis, 10 h cultivation at 37° C., 5×10^5 CFU/mL
  MIC (μg/mL) P. mirabilis: 25 µg/mL
Aeromonas hydrophila; A. hydrophila, 10 h cultivation at 37° C., 5×10^5 CFU/mL
  MIC (μg/mL) A. hydrophila: 12.5 µg/mL
Citrobacter diversus; C. diversus, 10 h cultivation at 37° C., 5×10^5 CFU/mL
  MIC (μg/mL) C. diversus: 25 µg/mL
Enterobacter cloacae; E. cloacae, 10 h cultivation at 37° C., 5×10^5 CFU/mL
  MIC (μg/mL) E. cloacae: 25 µg/mL
Serratia marcescens; S. marcescens, 10 h cultivation at 37° C., 5×10^5 CFU/mL
  MIC (μg/mL) S. marcescens: 25 µg/mL
Klebsiella pneumonia; K. pneumonia, 10 h cultivation at 37° C., 5×10^5 CFU/mL
  MIC (μg/mL) K. pneumonia: 12.5 µg/mL
Pseudomonas aeruginosa; P. aeruginosa, 10 h cultivation at 37° C., 5×10^5 CFU/mL
  MIC (μg/mL) P. aeruginosa: 25 µg/mL
E. coli DH5α
  MIC: 25 mg/L

## PRT1302 (QTSPCDQYECQNGAQCIVVQQEPTCRCPPGFAGPRCE; listed as Homo sapiens)
Moraxella catarrhalis; [10]
  MIC against M. catarrhalis: 12.5 mg/L
Proteus vulgaris; [11]
  MIC against P. vulgaris: 50 mg/L
E. coli BL21; [12]
  MIC against E. coli BL21: 50 mg/L
Proteus mirabilis; [13]
  MIC against P. mirabilis: 25 mg/L
Aeromonas hydrophila; [14]
  MIC against A. hydrophila: 12.5 mg/L
Citrobacter diversus; [15]
  MIC against C. diversus: 50 mg/L
Enterobacter cloacae; [16]
  MIC against E. cloacae: 25 mg/L
Serratia marcescens; [17]
  MIC against S. marcescens: 25 mg/L
Klebsiella pneumonia; [18]
  MIC against K. pneumonia: 50 mg/L
Pseudomonas aeruginosa; [19]
  MIC against P. aeruginosa: 12.5 mg/L
E. coli DH5α
  MIC: 12.5 mg/L

## PRT1210 (SVNPCSSKPCLYGGTCVVDNGGFVCQCRGLYTGQRCQ; listed as Homo sapiens)
Moraxella catarrhalis; [10]
  MIC against M. catarrhalis: 25 mg/L
Proteus vulgaris; [11]
  MIC against P. vulgaris: 25 mg/L
E. coli BL21; [12]
  MIC against E. coli BL21: 12.5 mg/L
Proteus mirabilis; [13]
  MIC against P. mirabilis: 12.5 mg/L
Aeromonas hydrophila; [14]
  MIC against A. hydrophila: 25 mg/L
Citrobacter diversus; [15]
  MIC against C. diversus: 12.5 mg/L
Enterobacter cloacae; [16]
  MIC against E. cloacae: 25 mg/L
Serratia marcescens; [17]
  MIC against S. marcescens: 12.5 mg/L
Klebsiella pneumonia; [18]
  MIC against K. pneumonia: 12.5 mg/L
Pseudomonas aeruginosa; [19]
  MIC against P. aeruginosa: 25 mg/L
E. coli DH5α
  MIC: 25 mg/L

## PRT109 (ASQACRTNPCLHGGRCLEVEGHRLCHCPVGYTGAFCD; listed as Homo sapiens)
Moraxella catarrhalis; [10]
  MIC (μg/mL) M. catarrhalis: 25 µg/mL
Proteus vulgaris; [11]
  MIC (μg/mL) P. vulgaris: 25 µg/mL
E. coli BL21; [12]
  MIC (μg/mL) E. coli BL21: 12.5 µg/mL
Proteus mirabilis; [13]
  MIC (μg/mL) P. mirabilis: 12.5 µg/mL
Aeromonas hydrophila; [14]
  MIC (μg/mL) A. hydrophila: 12.5 µg/mL
Citrobacter diversus; [15]
  MIC (μg/mL) C. diversus: 12.5 µg/mL
Enterobacter cloacae; [16]
  MIC (μg/mL) E. cloacae: 12.5 µg/mL
Serratia marcescens; [17]
  MIC (μg/mL) S. marcescens: 50 µg/mL
Klebsiella pneumonia; [18]
  MIC (μg/mL) K. pneumonia: 12.5 µg/mL
Pseudomonas aeruginosa; [19]
  MIC (μg/mL) P. aeruginosa: 12.5 µg/mL
E. coli DH5α
  MIC: 12.5 mg/L

## PRT943 (PNVSCDIAASRRGVLVEHLCQHSGVCINAGNTHYCQCPLGYTGSYCE; listed as Homo sapiens)
Moraxella catarrhalis; [1]
  MIC: 12.5 mg/L
Proteus vulgaris; [2]
  MIC: 12.5 mg/L
E. coli BL21; 10 h cultivation at 37° C.
  MIC: 12.5 mg/L
Proteus mirabilis; [3]
  MIC: 12.5 mg/L
Aeromonas hydrophila; [4]
  MIC: 12.5 mg/L
Citrobacter diversus; [5]
  MIC: 12.5 mg/L
Enterobacter cloacae; [6]
  MIC: 25 mg/L
Serratia marcescens; [7]
  MIC: 50 mg/L
Klebsiella pneumonia; [8]
  MIC: 12.5 mg/L
Pseudomonas aeruginosa; [9]
  MIC: 12.5 mg/L
E. coli DH5α
  MIC: 12.5 mg/L
